Experimental data reported in patent US20240294533A1, “2-(HET)ARYL-SUBSTITUTED CONDENSED HETEROCYCLE DERIVATIVES AS PEST CONTROL AGENTS” (Bayer Aktiengesellschaft, priority 2021, published 2024).

Tests used:
Format in all cases: in vivo
[1] = test system: Diabrotica balteata; assay: Diabrotica balteata spray test; conditions: Diabrotica balteata, 168 h; 100 g/ha (=32 μg/cavity), wheat grains, after 7 days; read-out: efficacy
From the text: Diabrotica balteata—Spray Test Solvent: 78 parts by weight of acetone • • 1.5 parts by weight of dimethylformamide Emulsifier: alkylaryl polyglycol ether An appropriate active ingredient formulation is produced by dissolving 1 part by weight of active ingredient with the stated parts by weight of solvent and making the solution up to the desired concentration with water containing an emulsifier concentration of 1000 ppm. Further test concentrations are produced by diluting the formulation with emulsifier-containing water. Pre-swollen wheat grains (Triticum aestivum) are incubated in a multiwell plate filled with agar and a little water for one day (5 seed grains per cavity). The germinated wheat grains are sprayed with an active ingredient formulation of the desired concentration. Subsequently, each cavity is infected with 10-20 beetle larvae of Diabrotica balteata. After 7 days, efficacy in % is determined. 100% means that all wheat plants have grown as in the untreated, uninfected control; 0% means that no wheat plant has grown.

[2] = test system: Meloidogyne incognita; assay: Meloidogyne incognita test; conditions: Meloidogyne incognita, 336 h, lettuce, gall formation after 14 days, read-out: nematicidal efficacy
From the text: Meloidogyne incognita Test Solvent: 125.0 parts by weight of acetone An appropriate active ingredient formulation is produced by mixing 1 part by weight of active ingredient with the stated amount of solvent and diluting the concentrate to the desired concentration with water. Vessels are filled with sand, active ingredient solution, an egg/larvae suspension of the southern root-knot nematode (Meloidogyne incognita) and lettuce seeds. The lettuce seeds germinate and the plants develop. The galls develop on the roots. After 14 days, the nematicidal efficacy in % is determined by the formation of galls. 100% means that no galls were found; 0% means that the number of galls on the treated plants corresponds to the untreated control.

[3] = test system: Spodoptera frugiperda; assay: Spodoptera frugiperda spray test (maize leaf discs); conditions: Spodoptera frugiperda, foliar, 168 h, after 7 days, read-out: efficacy
From the text: Spodoptera Frusiperda—Spray Test Solvent: 78.0 parts by weight of acetone • • 1.5 parts by weight of dimethylformamide Emulsifier: alkylaryl polyglycol ether An appropriate active ingredient formulation is produced by dissolving 1 part by weight of active ingredient with the stated parts by weight of solvent and making the solution up to the desired concentration with water containing an emulsifier concentration of 1000 ppm. Further test concentrations are produced by diluting the formulation with emulsifier-containing water. Leaf discs of maize (Zea mays) are sprayed with an active ingredient formulation of the desired concentration and, after drying, populated with caterpillars of the fall armyworm (Spodoptera frugiperda). After 7 days, efficacy in % is determined. 100% means that all the caterpillars have been killed; 0% means that no caterpillar has been killed.

[4] = test system: Nezara viridula; assay: Nezara viridula spray test (infected barley plants sprayed); conditions: 100 g ai/ha, after 4 days
From the text: Nezara viridula—Spray Test Solvent: 52.5 parts by weight of acetone • 7 parts by weight of dimethylformamide Emulsifier: alkylaryl polyglycol ether An appropriate active ingredient formulation is produced by dissolving 1 part by weight of active ingredient with the stated parts by weight of solvent and making the solution up to the desired concentration with water containing an emulsifier concentration of 1000 ppm. Further test concentrations are produced by diluting the formulation with emulsifier-containing water. If the addition of ammonium salts or/and penetrants is required, these are each added in a concentration of 1000 ppm to the formulation solution. Barley plants (Hordeum vulgare) infected with larvae of the Southern green shield bug (Nezara viridula) are sprayed with an active ingredient formulation of the desired concentration. After 4 days, efficacy in % is determined. 100% means that all of the shield bugs have been killed; 0% means that none of the shield bugs have been killed.

[5] = test system: Myzus persicae; assay: Myzus persicae spray test; conditions: 20 ppm, bell pepper plants, after 6 days
From the text: Myzus persicae—Spray Test Solvent: 14 parts by weight of dimethylformamide Emulsifier: alkylaryl polyglycol ether An appropriate active ingredient formulation is produced by dissolving 1 part by weight of active ingredient with the stated parts by weight of solvent and making the solution up to the desired concentration with water containing an emulsifier concentration of 1000 ppm. Further test concentrations are produced by diluting the formulation with emulsifier-containing water. If the addition of ammonium salts or/and penetrants is required, these are each added in a concentration of 1000 ppm to the formulation solution. Bell pepper plants (Capsicum annuum) severely infested with the green peach aphid (Myzus persicae) are treated by spraying with the active ingredient formulation in the desired concentration. After 6 days, the kill rate in % is determined. 100% means that all of the aphids have been killed; 0% means that none of the aphids have been killed.

[6] = test system: Spodoptera frugiperda; assay: Spodoptera frugiperda spray test (SPODFR), comparative; conditions: 168 h, cotton leaves, after 7 days; for Emax at 0.8 ppm: read-out: % Efficacy
From the text: (§1) Spodoptera frugtiperda—Spray Test (SPODFR) Solvent: 14 parts by weight of dimethylformamide Emulsifier: alkylaryl polyglycol ether An appropriate active ingredient formulation is produced by dissolving 1 part by weight of active ingredient with the stated parts by weight of solvent and making the solution up to the desired concentration with water containing an emulsifier concentration of 1000 ppm. Further test concentrations are produced by diluting the formulation with emulsifier-containing water. If the addition of ammonium salts or/and penetrants is required, these are each added in a concentration of 1000 ppm to the formulation solution. Cotton leaves (Gossypium hirsutum) are sprayed with an active ingredient formulation of the desired concentration and populated with caterpillars of the armyworm (Spodoptera frugiperda). After 7 days, the kill in % is determined. 100% means that all caterpillars have been killed; 0% means that none of the caterpillars have been killed.

[7] = test system: Plutella xylostella; assay: Plutella xylostella spray test (PLUTMA), comparative; conditions: 168 h, cabbage leaves, after 7 days
From the text: Plutella xylostella Spray Test (PLUTMA) Solvent: 14 parts by weight of dimethylformamide Emulsifier: alkylaryl polyglycol ether An appropriate active ingredient formulation is produced by dissolving 1 part by weight of active ingredient with the stated parts by weight of solvent and making the solution up to the desired concentration with water containing an emulsifier concentration of 1000 ppm. Further test concentrations are produced by diluting the formulation with emulsifier-containing water. If the addition of ammonium salts or/and penetrants is required, these are each added in a concentration of 1000 ppm to the formulation solution. Cabbage leaves (Brassica oleracea) are sprayed with an active ingredient formulation of the desired concentration and infected with larvae of the diamondback moth (Plutella xylostella). After 7 days, the kill in % is determined. 100% means that all caterpillars have been killed; 0% means that none of the caterpillars have been killed.

[8] = test system: Heliothis armigera; assay: Heliothis armigera spray test (HELIAR), comparative; conditions: Helicoverpa armigera, 168 h, cotton plants, after 7 days
From the text: as §1, with “Heliothis Armigera Spray Test ([…])” for “Spodoptera frugtiperda—Spray Test (SPODFR)”, “Spray Test ([…]) Solvent: 14” for “frugtiperda—Spray Test (SPODFR) Solvent: 14”, “solution. Cotton plants (Gossypium hirsutum)” for “solution. Cotton leaves (Gossypium hirsutum)”, “desired concentration and, after drying, populated with” for “desired concentration and populated with”, “of the cotton bollworm (Heliothis armigera). After 7” for “of the armyworm (Spodoptera frugiperda). After 7”

[9] = test system: Phaedon cochleariae; assay: Phaedon cochleariae spray test; conditions: 100 g/ha, Chinese cabbage leaf discs, after 7 days
From the text: Phaedon cochleariae—Spray Test
Solvent: 78.0 parts by weight of acetone • • 1.5 parts by weight of dimethylformamide
Emulsifier: alkylaryl polyglycol ether
An appropriate active ingredient formulation is produced by dissolving 1 part by weight of active ingredient with the stated parts by weight of solvent and making the solution up to the desired concentration with water containing an emulsifier concentration of 1000 ppm. Further test concentrations are produced by diluting the formulation with emulsifier-containing water.
Discs of Chinese cabbage leaves (Brassica pekinensis) are sprayed with an active ingredient formulation of the desired concentration and, after drying, populated with larvae of the mustard beetle (Phaedon cochleariae).
After 7 days, efficacy in % is determined. 100% means that all the beetle larvae have been killed; 0% means that no beetle larvae have been killed.

[10] = test system: Lucilia cuprina; assay: Lucilia cuprina test; conditions: 100 ppm, L1 larvae, after 2 days
Protocol: Lucilia cuprina Test Solvent: dimethyl sulfoxide An appropriate active ingredient formulation is produced by mixing 10 mg of active ingredient with 0.5 ml of dimethyl sulfoxide and diluting the concentrate with water to the desired concentration. About 20 L1 larvae of the Australian sheep blowfly (Lucilia cuprina) are transferred into a test vessel containing minced horsemeat and the active ingredient formulation of the desired concentration. After 2 days, the kill rate in % is determined relative to the untreated control. 100% means that all the larvae have been killed; 0% means that no larvae have been killed.

[11] = test system: Musca domestica; assay: Musca domestica test; conditions: 100 ppm, adult houseflies, after 2 days
Protocol: Musca domestica Test Solvent: dimethyl sulfoxide An appropriate active ingredient formulation is produced by mixing 10 mg of active ingredient with 0.5 ml of dimethyl sulfoxide and diluting the concentrate with water to the desired concentration. Vessels containing a sponge treated with sugar solution and the desired concentration of active compound formulation are populated with 10 adult houseflies (Musca domestica). After 2 days, the kill rate in % is determined relative to the untreated control. 100% means that all of the flies have been killed; 0% means that none of the flies have been killed.

[12] = test system: Ctenocephalides felis; assay: Ctenocephalides felis oral test; conditions: 100 ppm, oral via cattle blood, after 2 days
Protocol: Ctenocephalides felis—Oral Test Solvent: dimethyl sulfoxide An appropriate active ingredient formulation is produced by mixing 10 mg of active ingredient with 0.5 ml of dimethyl sulfoxide. Dilution with citrated cattle blood gives the desired concentration. About 20 unfed adult cat fleas (Ctenocephalides felis) are placed into a chamber which is closed at the top and bottom with gauze. Onto the chamber is placed a metal cylinder with its bottom end closed with parafilm. The cylinder contains the blood/active ingredient formulation, which can be imbibed by the fleas through the parafilm membrane. The cylinder is heated to 37° C., while the flea chambers are kept at room temperature. After 2 days, the kill rate in % is determined relative to the untreated control. 100% means that all of the fleas have been killed; 0% means that none of the fleas have been killed.

[13] = test system: Myzus persicae; assay: Myzus persicae oral test; conditions: 4 ppm, after 5 days
Protocol: Myzus persicae—Oral Test Solvent: 100 parts by weight of acetone An appropriate active ingredient formulation is produced by dissolving 1 part by weight of active ingredient with the specified parts by weight of solvent and making the solution up to the desired concentration with water. 50 μl of the active ingredient formulation is transferred into microtitre plates and made up to a final volume of 200 μl with 150 μl of IPL41 insect medium (33%+15% sugar). Subsequently, the plates are sealed with parafilm, which a mixed population of green peach aphids (Myzus persicae) within a second microtitre plate is able to puncture and imbibe the solution. After 5 days, efficacy in % is determined. 100% means that all the aphids have been killed; 0% means that no aphids have been killed.

[14] = test system: Diabrotica balteata; assay: Diabrotica balteata drench test; conditions: 20 ppm, soil drench, maize, after 8 days
From the text: Diabrotica balteata—Drench Test Solvent: 7 parts by weight of dimethylformamide Emulsifier: 2 parts by weight of alkylaryl polyglycol ether An appropriate active ingredient formulation is produced by mixing 1 part by weight of active ingredient with the specified amounts of solvent and emulsifier, and diluting the concentrate to the desired concentration with water, it being necessary to take account of the volume of soil which is drenched. It should be ensured that a concentration of 40 ppm of emulsifier in the soil is not exceeded. Further test concentrations are produced by diluting with water. 5 […] (Zea mays) in each case are sown into pots filled with earth, and the next day the pots are watered with the active ingredient preparation of the desired concentration. After one day, about 25 L2 larvae of the banded cucumber beetle (Diabrotica balteata) are added. After 8 days, efficacy in % is determined. 100% means that all 5 plants have germinated and grown; 0% means that none of the plants has emerged.

SMILES	pest or weed control at 100 g/ha [1] [%]	pest or weed control at 20 ppm [2] [%]	pest or weed control at 100 g/ha [3] [%]	efficacy [4] [%]	Emax at 0.8 ppm [6] [%]	efficacy at 0.8 ppm [7] [%]	further results
CCS(=O)(=O)c1ccc(-n2ncn(-c3cccc(F)c3)c2=O)nc1-c1nc2cc(C(F)(F)C(F)(F)F)nnc2n1C [Example I-12]	100	100	100	100			efficacy (kill rate) [5]: 98%
CCS(=O)(=O)c1ccc(-n2ncn(-c3ccc(Br)cc3)c2=O)nc1-c1nc2cc(C(F)(F)F)ccc2n1C [I-16 known from WO 2017/055185, reference compound]					10	85	Emax at 0.8 ppm ([8]; 0.8 ppm, read-out: % Efficacy): 20%; Emax at 4 ppm ([8]; 4 ppm, read-out: % Efficacy): 60%
CCS(=O)(=O)c1ccc(-n2ncn(-c3ccc(Cl)cc3)c2=O)nc1-c1nc2cc(C(F)(F)C(F)(F)F)nnc2n1C [Example I-22]			100	90			efficacy [9]: 100%; efficacy (kill rate) [10]: 100%; efficacy (kill rate) [11]: 100%; efficacy (kill rate) [12]: 100%; efficacy [13]: 100%; efficacy [14]: 100%
Cn1c(-c2nc(-n3ncn(-c4ccc(Cl)cc4)c3=O)ccc2CS(C)(=O)=O)nc2cc(C(F)(F)F)cnc21 [I-33 known from WO 2017/055185, reference compound]					0		efficacy at 0.16 ppm ([7]; 0.16 ppm): 15%
CCS(=O)(=O)c1ccc(-n2ncn(-c3ccc(Br)cc3)c2=O)nc1-c1nc2cc(C(F)(F)C(F)(F)F)nnc2n1C [Example I-14]	100	100	100			100	percent efficacy at tested dose at 0.8 ppm [6]: 100%; percent efficacy (kill) at fixed dose at 0.8 ppm ([8]; 0.8 ppm): 100%; percent efficacy (kill) at fixed dose at 4 ppm ([8]; 4 ppm): 100%
